Results from US20250277066A1, “Substituted Pyridine-2,6-Bis(Phenylenephenolate) Complexes with Enhanced Solubility that are Useful as Catalyst Components for Olefin Polymerization” (ExxonMobil Chemical Patents Inc., priority 2022, published 2025).
Several values for one entry are separate records, joined by “and”; a condition that tells them apart may be missing. Equal values may be shown once.

Assays:
[1] = Rapid GPC of polymers (Mn, Mw, Mz, PDI); format: physicochemical; set-up: Mn / Mw / Mz: unit not given here
Experimental: For analytical testing, polymer sample solutions were prepared by dissolving polymer in 1,2,4-trichlorobenzene (TCB, 99+% purity from Sigma-Aldrich) containing 2,6-di-tert-butyl-4-methylphenol (BHT, 99% from Aldrich) at 165° C. in a shaker oven for approximately 3 hours. The typical concentration of polymer in solution was between 0.1 to 0.9 mg/mL with a BHT concentration of 1.25 mg BHT/mL of TCB. Samples were cooled to 135° C. for testing.
High temperature size exclusion chromatography was performed using an automated “Rapid GPC” system as described in U.S. Pat. Nos. 6,491,816; 6,491,823; 6,475,391; 6,461,515; 6,436,292; 6,406,632; 6,175,409; 6,454,947; 6,260,407; and 6,294,388; each of which is incorporated herein by reference. Molecular weights (weight average molecular weight (Mw), number average molecular weight (Mn) and z average molecular weight (Mz)) and molecular weight distribution (MWD=Mw/Mn), which is also sometimes referred to as the polydispersity (PDI) of the polymer, were measured by Gel Permeation Chromatography using a Symyx Technology GPC equipped with evaporative light scattering detector (ELSD) and calibrated using polystyrene standards (Polymer Laboratories: Polystyrene Calibration Kit S-M-10: Mp (peak Mw) between 5,000 and 3,390,000). Alternatively, samples were measured by Gel Permeation Chromatography using a Symyx Technology GPC equipped with dual wavelength infrared detector and calibrated using polystyrene standards (Polymer Laboratories: Polystyrene Calibration Kit S-M-10: Mp (peak Mw) between 580 and 3,039,000). […] No column spreading corrections were employed. Numerical analyses were performed using Epoch® software available from Symyx Technologies or Automation Studio software available from Freeslate. The molecular weights obtained are relative to linear polystyrene standards. Molecular weight data is reported in Table 2 under the headings Mn, Mw, Mz and PDI as defined above.

[2] = DSC melting point of polymers (TA-Q100); format: physicochemical
Experimental: Differential Scanning Calorimetry (DSC) measurements were performed on a TA-Q100 instrument to determine the melting point of the polymers. Samples were pre-annealed at 220° C. for 15 minutes and then allowed to cool to room temperature overnight. The samples were then heated to 220° C. at a rate of 100° C./minute and then cooled at a rate of 50° C./minute. Melting points were collected during the heating period. The results are reported in the Table 2 under the heading, Tm (° C.).

[3] = Propylene polymerization (PP) in small-scale autoclave reactors: yield, quench time, catalyst activity; settings: activator A
Text: Solutions of the pre-catalysts were made using toluene (ExxonMobil Chemical—anhydrous, stored under N2) (98%) or isohexane (ExxonMobil Chemical—polymerization grade, and purified as described below). Pre-catalyst solutions were typically 0.25 mmol/L.
Solvents, polymerization grade toluene and/or isohexanes were supplied by ExxonMobil Chemical Co. and are purified by passing through a series of columns: two 500 cc Oxyclear cylinders in series from Labclear (Oakland, Calif), followed by two 500 cc columns in series packed with dried […] (8-12 mesh; Aldrich Chemical Company), and two 500 cc columns in series packed with dried 5 Å mole sieves (8-12 mesh; Aldrich Chemical Company).
Polymerization grade propylene (C3) was used and further purified by passing it through a series of columns: 2250 cc Oxiclear cylinder from Labclear followed by a 2250 cc column packed with 3 Å mole sieves (8-12 mesh; Aldrich Chemical Company), then two 500 cc columns in series packed with 5 Å mole sieves (8-12 mesh; Aldrich Chemical Company), then a 500 cc column packed with Selexsorb CD (BASF), and finally a 500 cc column packed with Selexsorb COS (BASF).
Activation of the pre-catalysts was either by dimethylanilinium tetrakisperfluorophenylborate (Boulder Scientific or Albemarle Corp; Act ID=A) or is (hydrogenated tallow alkyl)methylammonium tetrakis(pentafluorophenyl)borate supplied as a 10 wt % solution in methylcyclohexane (Boulder Scientific; Act ID=B). Activators were typically used as a 0.25 mmol/L solution in toluene or isohexane.
Tri-n-octylaluminum (TnOAl or TNOA, Neat, AkzoNobel) was also used as a scavenger prior to introduction of the activator and pre-catalyst into the reactor. TNOA was typically used as a 5 mmol/L solution in toluene or isohexane.
Polymerizations were conducted in an inert atmosphere (N2) drybox using autoclaves equipped with an external heater for temperature control, glass inserts (internal volume of reactor=23.5 mL for C2 and C2/C8; 22.5 mL for C3 runs), septum inlets, regulated supply of nitrogen, ethylene and propylene, and equipped with disposable PEEK mechanical stirrers (800 RPM). The autoclaves were prepared by purging with dry nitrogen at 110° C. or 115° C. for 5 hours and then at 25° C. for 5 hours.
The reactor was prepared as described above, then heated to 40° C., and then purged with propylene gas at atmospheric pressure. Toluene or isohexanes, liquid propylene (1.0 mL) and scavenger (TNOA, 0.5 μmol) were added via syringe. The reactor was then brought to process temperature (70° C. or 100° C.) while stirring at 800 RPM. The activator solution, followed by the pre-catalyst solution, were injected via syringe to the reactor at process conditions. Reactor temperature was monitored and typically maintained within +/−1° C. Polymerizations were halted by addition of approximately 50 psi compressed dry air gas mixture to the autoclaves for approximately 30 seconds. The polymerizations were quenched based on a predetermined pressure loss (maximum quench value) or for a maximum of 30 minutes. The reactors were cooled and vented. The polymers were isolated after the solvent was removed in-vacuo. The actual quench time (s) is reported as quench time (s). Yields reported include total weight of polymer and residual catalyst. Catalyst activity is reported as grams of polymer per mmol transition metal compound per hour of reaction time (g/mmol·hr).
Polymerization results are collected in Tables 2 below. “Ex #” stands for example number. Example numbers starting with a “C” are comparative examples. “Cat ID” identifies the pre-catalyst used in the experiment. Corresponding numbers identifying the pre-catalyst (also referred to as pre-catalyst, catalyst, complex or compound) are located in the synthetic experimental section. T(° C.) is the polymerization temperature which was typically maintained within +/−1° C. “Yield” is polymer yield, and is not corrected for catalyst residue. […]

[4] = Solubility of complexes in isohexane (Method 1 or Method 2); format: physicochemical; settings: ambient temperature (20° C.-25° C.), mass includes residual solvent
Experimental: Solubility studies for all other complexes were performed using material as synthesized. […] Solvents used were sparged with nitrogen (30-60 minutes) and dried over 3 Å mole sieves. Unless stated otherwise all measurements were performed at ambient temperature (20° C.-25° C.).
General procedure: Solubility was determined using the following Method 1 or Method 2. For calculations, a value of 0.672 g/mL was used for the density of isohexane.
Method 1: A tared vial was loaded with a small amount of the complex (actual mass recorded, including any residual solvent as noted above, typically 5-30 mg). Then a small stir bar (8 mm) was added. Solvent was then added and the mixture was stirred rapidly (1000 rpm). […] This process was repeated until either a clear solution was obtained (no visible solids or murkiness) or the vial was full. As the mixture approached homogeneity (i.e., few remaining solids observed) the volume of the solvent additions was kept small (<1 mL) to minimize excess beyond the solvent required to achieve homogeneity. The stir bar was then removed and the mass of the mixture was measured. If a clear solution had formed then the solubility of the complex was calculated as a single value, based on the mass of complex and the amount of solvent added to achieve a homogeneous solution. If the mixture remained heterogeneous (visible solids or murky), then the value reported is given as being “less than” the calculated value.
Method 2: A measured amount of complex (actual mass recorded, including any residual solvent as noted above) was added to a tared vial, followed by a stir bar. Dry isohexanes were added in small portions and the resulting mixture was stirred after each portion of isohexanes. If a clear solution had formed then the solubility was reported as a range, the lower bound of solubility calculated using the total solvent added to achieve a homogenous solution and the upper bound of solubility calculated using the total solvent measured prior to achieving a homogenous solution. If the mixture remained heterogeneous (visible solids or murky), the upper bound of solubility was calculated using the total solvent added. Formula used to calculate solubility are listed below. Solvent present in the complex is included in the mass and formula weight of the complexes.

[5] = polypropylene made with activator A at 70° C.
[6] = polypropylene made with activator A at 70° C., Mw/Mn
[7] = polypropylene made with activator A at 100° C.
[8] = polypropylene made with activator A at 100° C., Mw/Mn
[9] = polymer made with activator A, T 70 ° C.

Row | Structure (SMILES) | Mn [1, 5] | Mw [1, 5] | Mz [1, 5] | PDI [1, 6] | Mn [1, 7] | Mw [1, 7] | Mz [1, 7] | PDI [1, 8] | Tm [2, 5] | Tm [2, 7] | Activity ([3]; T 70° C.) | Activity ([3]; T 100° C.) | Mn [1, 9] | Mw [1, 9] | Mz [1, 9] | PDI [1, 9] | Tm [2, 9] [°C] | Solubility (s) in Isohexane [4] [µM] | Solubility (s) in Isohexane (wt %) [4] [wt %]
1 | Cc1cc2c(c(C34CC5CC(C)(CC(C)(C5)C3)C4)c1)[O][Hf-]1([CH3])([CH3])[O]c3c(cc(C)cc3C34CC5CC(C)(CC(C)(C5)C3)C4)-c3ccccc3-c3cc(N4CCCC4)cc([n+]31)-c1ccccc1-2 [Complex 30] | 186,851 and 187,906 and 245,411 | 346,587 and 346,773 and 427,041 | 762,107 and 711,356 and 871,754 | 1.85 and 1.74 | 86,554 and 106,308 and 121,006 | 147,732 and 177,827 and 199,815 | 301,600 and 354,753 and 438,188 | 1.71 and 1.67 and 1.65 | 163.3 °C and 163.5 °C and 164.8 °C | 158.0 °C and 158.7 °C and 159.0 °C | 7,103 g P/mmol cat • hr and 6,836 g P/mmol cat • hr and 8,533 g P/mmol cat • hr | 4,453 g P/mmol cat • hr and 6,707 g P/mmol cat • hr and 8,689 g P/mmol cat • hr | – | – | – | – | – | – | –
2 | Cc1cc2[n+]3c(c1)-c1ccccc1-c1cc(C(C)(C)C)cc(C45CC6CC(CC(C6)C4)C5)c1[O][Zr-]3([CH3])([CH3])[O]c1c(cc(C(C)(C)C)cc1C13CC4CC(CC(C4)C1)C3)-c1ccccc1-2 [compound 3] | – | – | – | – | – | – | – | – | – | – | 1,251,771 g P/mmol cat • hr | – | 206,080 | 676,784 | 2,471,266 | 3.28 | 150.7 | – | –
3 | Cc1cc2c(c(C34CC5CC(CC(C5)C3)C4)c1)[O][Zr-]1([CH3])([CH3])[O]c3c(cc(C)cc3C34CC5CC(CC(C5)C3)C4)-c3ccccc3-c3cccc([n+]31)-c1ccccc1-2 [Complex 1] | 57,753 and 64,376 and 67,290 | 372,797 and 502,821 and 428,075 | 1,464,190 and 2,141,863 and 1,753,319 | 6.46 and 7.81 and 6.36 | 28,762 and 34,553 and 48,560 | 152,087 and 155,815 and 169,007 | 646,646 and 665,846 and 624,200 | 5.29 and 4.51 and 3.48 | 147.5 °C and 147.3 °C and 148.1 °C | 145.8 °C and 147.0 °C | 5,668,800 g P/mmol cat • hr and 7,619,077 g P/mmol cat • hr and 6,920,571 g P/mmol cat • hr | 3,931,500 g P/mmol cat • hr and 4,448,471 g P/mmol cat • hr and 2,644,800 g P/mmol cat • hr | – | – | – | – | – | <600 | <0.08
